{"source": "ChEMBL document CHEMBL3880418", "about": "“Pyripyropene derivative having ACAT2 inhibiting activity and stable to metabolizing enzymes” (2013)", "key": {"[1]": {"target": "T1, Sterol O-acyltransferase 2 (Mus musculus) (UniProt O88908)", "T1 sequence (whole entry)": "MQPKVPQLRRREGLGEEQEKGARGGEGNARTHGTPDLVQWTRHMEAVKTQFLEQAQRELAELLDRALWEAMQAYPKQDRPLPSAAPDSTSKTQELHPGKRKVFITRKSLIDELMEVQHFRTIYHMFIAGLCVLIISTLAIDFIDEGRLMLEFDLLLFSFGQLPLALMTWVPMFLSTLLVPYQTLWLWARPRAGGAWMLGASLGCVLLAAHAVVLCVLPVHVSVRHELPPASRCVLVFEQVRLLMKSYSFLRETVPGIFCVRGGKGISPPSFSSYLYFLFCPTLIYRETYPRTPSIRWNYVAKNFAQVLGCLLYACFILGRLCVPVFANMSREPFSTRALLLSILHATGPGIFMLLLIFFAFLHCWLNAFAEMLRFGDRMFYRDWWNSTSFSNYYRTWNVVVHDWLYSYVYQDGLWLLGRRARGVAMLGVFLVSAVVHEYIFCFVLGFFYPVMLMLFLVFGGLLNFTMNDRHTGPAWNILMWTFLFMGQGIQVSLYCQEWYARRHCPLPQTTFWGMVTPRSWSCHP", "experiment": "Ratio of compound IC50 to PRD 043 IC50 for ACAT2 in mouse hepatic microsomal membranes", "type": "cell membranes", "conditions": "Liver, Microsomal Membrane"}, "[2]": {"experiment": "Half life in Sprague-Dawley rat liver microsomes at 6 ug/ml by HPLC method", "type": "ADME"}}, "data": [{"smiles": "C[C@@]12CO[C@@H](c3cccc4ccccc34)O[C@H]1CC[C@@]1(C)[C@H]2C[C@H](OC(=O)c2ccc(C#N)cc2)[C@@]2(C)Oc3cc(-c4cccnc4)oc(=O)c3[C@H](O)[C@H]12", "values": [{"measurement": "Ratio IC50", "setting": "[1]", "value": "< 20"}, {"measurement": "half-life at 6 ug/ml", "setting": "[2]", "value": "> 540", "unit": "min"}]}, {"smiles": "Cc1cccc(C)c1[C@@H]1OC[C@@]2(C)[C@@H]3C[C@H](OC(=O)c4ccc(C#N)cc4)[C@@]4(C)Oc5cc(-c6cccnc6)oc(=O)c5[C@H](O)[C@@H]4[C@@]3(C)CC[C@@H]2O1", "values": [{"measurement": "Ratio IC50", "setting": "[1]", "value": "< 20"}, {"measurement": "half-life at 6 ug/ml", "setting": "[2]", "value": "> 540", "unit": "min"}]}, {"smiles": "CC(=O)O[C@H]1CC[C@]2(C)[C@H]3[C@@H](O)c4c(cc(-c5cccnc5)oc4=O)O[C@]3(C)[C@@H](OC(=O)c3ccc(C#N)cc3)C[C@H]2[C@@]1(C)C(=O)O", "values": [{"measurement": "Ratio IC50", "setting": "[1]", "value": "< 20"}, {"measurement": "half-life at 6 ug/ml", "setting": "[2]", "value": "> 540", "unit": "min"}]}, {"smiles": "COc1ccccc1[C@@H]1OC[C@@]2(C)[C@@H]3C[C@H](OC(=O)c4ccc(F)cc4)[C@@]4(C)Oc5cc(-c6cccnc6)oc(=O)c5[C@H](O)[C@@H]4[C@@]3(C)CC[C@@H]2O1", "values": [{"measurement": "Ratio IC50", "setting": "[1]", "value": "< 20"}, {"measurement": "half-life at 6 ug/ml", "setting": "[2]", "value": "> 540", "unit": "min"}]}]}
